Minimal effective dose and IC50 data for two compounds are collected here from patent US5266570A, “Piperidine derivatives, compositions and use” (Imperial Chemical Industries PLC, priority 1991, dated 1993).

The subject of experiment [1] is apomorphine-induced climbing and apomorphine-induced disruption of swimming. Nature of the experiment: TEST B: antagonism of apomorphine-induced climbing and apomorphine-induced disruption of swimming. It counts as in vivo, mouse (female Swiss-Webster mice). As to conditions: Mus musculus; mice, oral, 30 min before apomorphine HCl 1.25 mg/kg sc; typical values; read-out: minimum effective dose (decrease in climbing score accompanied by increase in swimming score). On the procedure:
(§1) The compounds of Formula I are antagonists of dopamine D-2 receptors, and as such are predicted to be useful as antipsychotic drugs. D-2 antagonism can be shown by standard tests such as antagonism of [^3 H]-spiperone binding (Test A), and/or antagonism of apomorphine-induced climbing and apomorphine-induced disruption of swimming (Test B).
Female Swiss-Webster mice weighing approximately 20 g were deprived of food for approximately 24 h and then dosed orally with various doses of either the vehicle or test agent over a range of doses (N=20 mice per treatment group). Thirty minutes later they were dosed with apomorphine HCl at 1.25 mg/kg, sc, and placed into climbing cages. The climbing cages were 9 cm wide, 15 cm deep and 30 cm high. One wall had 27 horizontal rungs spaced 1 cm apart. Thirteen minutes after apomorphine each mouse was observed continuously for 1 min and the highest and lowest rung reached by its front paws was recorded. […] (The highest and lowest scores were 27 and 0, respectively.) Immediately after the 1-min climbing observation period each mouse was placed into a circular swimming tank for 2 min and the number of swims was counted. […] A "swim" was scored each time a mouse swam from one mark to the other. The mice were observed through overhead mirrors and the number of 180 degree swims was recorded for each mouse. […]

In experiment [2] the target is T1, dopamine (DA) D-2 receptor (Rattus norvegicus, UniProt P61169).
T1 construct: Specifically, rat striatal membranes were used; from tissue; host or cells: rat striatum (membranes)
Nature of the experiment: TEST A: [3H]-spiperone binding, dopamine (DA) D-2 receptor, rat striatal membranes. As to conditions: 0.5 nM [3H] spiperone, 40 nM ketanserin, pH 7.7, 37° C., 15 min, typical values, read-out: IC50 (drug concentration which produced a 50% displacement) for the displacement of [3H] spiperone.
Excerpt: as §1
The receptor binding assay used to measure affinities of various compounds for the dopamine (DA) D-2 receptor subtype was that described by Saller and Salama in J Pharmacol Exp Ther 236, page 714, 1986.
Specifically, rat striatal membranes were used. Tissue membranes were prepared and washed once in 50 volumes of the appropriate Tris HCl buffer. For the D-2 receptor binding assay, striatal membranes were suspended to a final concentration of 8 mg/ml in 50 mM Tris HCl with 40 nM ketanserin, pH 7.7. Nonspecific binding to D-2 receptors was measured in the presence of 1.0 μM (+)-butaclamol. IC50 s (drug concentration which produced a 50% displacement) for the displacement of 0.5 nM [^3 H] spiperone were determined using at least five concentrations of each drug in triplicate. One-half milliliter of membrane suspension was incubated with the compound of interest or vehicle or nonspecific drug, ligand and appropriate Tris HCl buffer. […] The amount of drug bound to the membranes was assessed using liquid scintillation counting techniques. […]
(In general: Displacement assays read how much labelled ligand stays bound in the presence of the test substance.)

T1 sequence (P61169 whole entry): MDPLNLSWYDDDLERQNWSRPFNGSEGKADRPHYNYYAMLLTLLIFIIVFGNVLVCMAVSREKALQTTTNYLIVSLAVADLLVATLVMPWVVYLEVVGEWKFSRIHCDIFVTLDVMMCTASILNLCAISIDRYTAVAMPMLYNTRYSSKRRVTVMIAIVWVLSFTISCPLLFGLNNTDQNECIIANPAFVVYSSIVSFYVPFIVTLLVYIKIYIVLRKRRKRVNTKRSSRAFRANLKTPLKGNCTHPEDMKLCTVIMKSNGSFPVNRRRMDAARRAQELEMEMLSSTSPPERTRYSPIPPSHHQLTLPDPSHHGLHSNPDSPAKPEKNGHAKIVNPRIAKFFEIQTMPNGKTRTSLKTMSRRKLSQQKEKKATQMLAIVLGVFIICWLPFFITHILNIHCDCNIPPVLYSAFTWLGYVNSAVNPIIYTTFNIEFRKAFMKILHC

Turning to `CCOCC(=O)NC1CCN(C[C@@]23C[C@@H](c4ccccc42)c2ccc(Cl)cc23)CC1` [Example 1, N-(1-[(9S,10S)-(+)-2-Chloro-9,10-dihydro-9,10-methanoanthracen-9-ylmethyl]-4-piperidyl)-2-ethoxyacetamide], the minimal effective dose in experiment [1] was determined as 2.5 mg/kg. Further, the IC50 in experiment [2] turned out to be 9 nM.

Turning to `CCC(=O)NC1CCN(CC23CC(c4ccccc42)c2ccc(Cl)cc23)CC1` (stereo not shown) [Example 24, N-(1-[2-Chloro-9,10-dihydro-9,10-methanoanthracen-9-ylmethyl]-4-piperidyl)propionamide], in experiment [1], the minimal effective dose amounted to 40 mg/kg. Besides, the IC50 in experiment [2] is 146 nM.
